Like-named read-outs stand apart in the source and are kept apart here.
Experiments:
[1] = molecular target: T1, AEA-DA lipid probe targets in Neuro2a cells (Mus musculus, UniProt Q8BHN3)
T1 sequence (Q8BHN3 33-944): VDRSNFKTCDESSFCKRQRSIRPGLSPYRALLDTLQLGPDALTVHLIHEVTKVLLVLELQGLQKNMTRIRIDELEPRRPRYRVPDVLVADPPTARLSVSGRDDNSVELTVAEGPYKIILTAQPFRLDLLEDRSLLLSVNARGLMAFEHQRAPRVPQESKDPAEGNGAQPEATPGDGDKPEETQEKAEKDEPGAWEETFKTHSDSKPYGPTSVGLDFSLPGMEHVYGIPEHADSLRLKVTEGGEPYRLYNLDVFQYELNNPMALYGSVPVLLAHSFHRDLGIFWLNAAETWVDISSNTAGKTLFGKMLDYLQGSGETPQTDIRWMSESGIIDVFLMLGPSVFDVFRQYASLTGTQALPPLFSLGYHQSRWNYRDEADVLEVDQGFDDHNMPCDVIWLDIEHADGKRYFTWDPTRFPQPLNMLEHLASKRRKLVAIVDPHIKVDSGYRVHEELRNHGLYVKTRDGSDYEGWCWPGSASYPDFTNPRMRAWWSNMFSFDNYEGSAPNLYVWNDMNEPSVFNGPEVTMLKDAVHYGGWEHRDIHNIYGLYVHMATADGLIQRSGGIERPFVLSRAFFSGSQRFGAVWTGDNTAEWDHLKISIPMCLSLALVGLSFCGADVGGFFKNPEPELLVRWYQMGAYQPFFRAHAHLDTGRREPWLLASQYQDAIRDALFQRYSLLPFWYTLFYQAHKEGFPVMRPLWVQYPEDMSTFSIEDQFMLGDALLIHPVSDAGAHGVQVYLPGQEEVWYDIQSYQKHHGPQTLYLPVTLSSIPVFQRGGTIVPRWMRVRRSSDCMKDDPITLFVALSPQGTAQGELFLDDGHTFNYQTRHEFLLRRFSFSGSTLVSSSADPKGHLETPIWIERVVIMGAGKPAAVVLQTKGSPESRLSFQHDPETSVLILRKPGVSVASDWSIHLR

[2] = molecular target: T2, AEA-DA lipid probe targets in Neuro2a cells (Mus musculus, UniProt Q9CQ85); details: for SILAC ratio, TIMM22 (Q9CQ85): Neuro2a cells, AEA-DA probe
T2 sequence (Q9CQ85 1-194): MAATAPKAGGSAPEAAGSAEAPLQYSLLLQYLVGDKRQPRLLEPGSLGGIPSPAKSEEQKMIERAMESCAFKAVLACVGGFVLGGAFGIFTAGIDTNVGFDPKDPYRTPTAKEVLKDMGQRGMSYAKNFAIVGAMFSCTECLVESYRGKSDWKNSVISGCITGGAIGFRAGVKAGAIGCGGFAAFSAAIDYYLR

[3] = molecular target: T3, AEA-DA lipid probe targets in Neuro2a cells (Mus musculus, UniProt O08547)
T3 sequence (O08547 1-215): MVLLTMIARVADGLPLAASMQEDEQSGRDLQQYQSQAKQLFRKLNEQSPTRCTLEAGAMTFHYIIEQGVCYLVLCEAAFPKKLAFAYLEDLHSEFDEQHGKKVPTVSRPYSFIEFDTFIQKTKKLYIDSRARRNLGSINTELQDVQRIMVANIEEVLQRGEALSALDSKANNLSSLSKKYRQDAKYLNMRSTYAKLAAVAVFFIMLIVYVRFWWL

[4] = molecular target: T4, AEA-DA lipid probe targets in Neuro2a cells (Mus musculus, UniProt Q91ZN5)
T4 sequence (Q91ZN5 1-431): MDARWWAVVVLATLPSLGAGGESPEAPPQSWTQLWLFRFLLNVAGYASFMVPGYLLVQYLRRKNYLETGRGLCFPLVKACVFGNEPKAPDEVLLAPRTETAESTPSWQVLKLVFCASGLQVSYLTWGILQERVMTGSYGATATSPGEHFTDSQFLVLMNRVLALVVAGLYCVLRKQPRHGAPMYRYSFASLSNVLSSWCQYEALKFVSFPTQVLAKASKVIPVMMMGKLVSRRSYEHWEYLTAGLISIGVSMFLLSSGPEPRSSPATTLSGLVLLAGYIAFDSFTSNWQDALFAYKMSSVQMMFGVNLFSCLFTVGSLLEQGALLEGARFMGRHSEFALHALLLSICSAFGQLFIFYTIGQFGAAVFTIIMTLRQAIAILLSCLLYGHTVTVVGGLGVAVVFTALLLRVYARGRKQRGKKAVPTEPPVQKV

[5] = molecular target: AEA-DA lipid probe targets in Neuro2a cells (Mus musculus, UniProt O89079)
[6] = molecular target: AEA-DA lipid probe targets in Neuro2a cells (Mus musculus, UniProt Q91WD5)
[7] = molecular target: T5, AEA-DA lipid probe targets in Neuro2a cells (Mus musculus, UniProt P37040)
T5 sequence (P37040 1-678): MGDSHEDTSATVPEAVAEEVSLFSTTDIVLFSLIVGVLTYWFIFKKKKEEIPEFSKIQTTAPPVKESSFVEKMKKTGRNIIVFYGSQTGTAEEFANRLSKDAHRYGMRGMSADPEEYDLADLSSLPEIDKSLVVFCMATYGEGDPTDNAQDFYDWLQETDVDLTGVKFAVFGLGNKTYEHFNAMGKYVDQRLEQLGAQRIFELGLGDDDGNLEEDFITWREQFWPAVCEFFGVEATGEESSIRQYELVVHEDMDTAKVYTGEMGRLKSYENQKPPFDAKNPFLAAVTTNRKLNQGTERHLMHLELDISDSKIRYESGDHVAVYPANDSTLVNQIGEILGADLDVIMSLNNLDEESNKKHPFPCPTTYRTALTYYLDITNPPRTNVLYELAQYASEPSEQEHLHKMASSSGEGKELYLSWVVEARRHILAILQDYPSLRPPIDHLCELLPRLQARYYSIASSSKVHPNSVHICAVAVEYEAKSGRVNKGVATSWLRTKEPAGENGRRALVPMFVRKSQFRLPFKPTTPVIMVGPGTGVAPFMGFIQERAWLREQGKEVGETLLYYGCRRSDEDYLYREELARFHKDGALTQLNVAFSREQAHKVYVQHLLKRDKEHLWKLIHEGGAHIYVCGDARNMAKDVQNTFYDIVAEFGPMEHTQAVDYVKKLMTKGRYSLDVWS

[8] = molecular target: AEA-DA lipid probe targets in Neuro2a cells (Mus musculus, UniProt P20029)
AEA-DA lipid probe targets in Neuro2a cells (Mus musculus, UniProt P20029), sequence (P20029 20-655): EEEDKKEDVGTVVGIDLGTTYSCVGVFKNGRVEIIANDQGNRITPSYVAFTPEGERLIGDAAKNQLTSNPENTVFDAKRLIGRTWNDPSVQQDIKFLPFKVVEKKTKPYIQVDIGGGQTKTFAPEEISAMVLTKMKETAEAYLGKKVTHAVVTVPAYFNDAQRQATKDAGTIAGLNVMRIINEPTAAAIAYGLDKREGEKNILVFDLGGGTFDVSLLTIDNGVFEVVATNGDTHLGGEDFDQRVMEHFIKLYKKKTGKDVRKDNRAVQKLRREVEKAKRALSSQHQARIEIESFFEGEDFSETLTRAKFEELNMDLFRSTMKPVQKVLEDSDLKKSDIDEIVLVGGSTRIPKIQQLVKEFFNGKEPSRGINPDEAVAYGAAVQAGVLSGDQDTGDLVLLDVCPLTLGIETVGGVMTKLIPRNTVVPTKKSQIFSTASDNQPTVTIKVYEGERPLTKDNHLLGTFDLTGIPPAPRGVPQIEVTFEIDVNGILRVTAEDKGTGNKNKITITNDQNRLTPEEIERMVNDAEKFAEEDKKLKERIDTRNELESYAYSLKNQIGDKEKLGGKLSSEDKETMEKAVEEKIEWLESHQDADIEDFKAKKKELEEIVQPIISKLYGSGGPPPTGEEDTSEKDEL

AEA-DA lipid probe targets in Neuro2a cells (Mus musculus, UniProt O89079), sequence (O89079 whole entry): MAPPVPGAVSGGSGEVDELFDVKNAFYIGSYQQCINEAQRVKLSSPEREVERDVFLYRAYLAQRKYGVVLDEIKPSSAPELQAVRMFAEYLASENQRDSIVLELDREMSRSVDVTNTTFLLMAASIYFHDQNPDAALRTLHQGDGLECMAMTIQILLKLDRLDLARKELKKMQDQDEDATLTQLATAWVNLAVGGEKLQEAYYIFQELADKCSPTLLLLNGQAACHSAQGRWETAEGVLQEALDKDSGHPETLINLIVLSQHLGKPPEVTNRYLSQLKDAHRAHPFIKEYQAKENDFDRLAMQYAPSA
AEA-DA lipid probe targets in Neuro2a cells (Mus musculus, UniProt Q91WD5), sequence (Q91WD5 34-463): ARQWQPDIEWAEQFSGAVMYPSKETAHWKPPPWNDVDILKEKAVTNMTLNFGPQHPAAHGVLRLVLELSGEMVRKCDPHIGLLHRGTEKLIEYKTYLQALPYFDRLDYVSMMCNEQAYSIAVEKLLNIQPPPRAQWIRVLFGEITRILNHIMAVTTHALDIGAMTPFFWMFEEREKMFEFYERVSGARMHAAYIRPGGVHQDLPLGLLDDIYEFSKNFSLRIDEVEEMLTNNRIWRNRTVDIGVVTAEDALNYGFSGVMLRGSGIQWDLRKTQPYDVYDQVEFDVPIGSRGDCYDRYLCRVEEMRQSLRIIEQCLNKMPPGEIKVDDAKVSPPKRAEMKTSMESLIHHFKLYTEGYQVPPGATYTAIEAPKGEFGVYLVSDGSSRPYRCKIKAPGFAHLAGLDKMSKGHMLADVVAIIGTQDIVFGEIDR

SMILES | SILAC ratio Ganab ([1]; competitor 25 μM) | SILAC ratio, TIMM22 (Q9CQ85) ([2]; competitor 25 μM) | SILAC ratio, Timm22 ([2]; competitor 25 μM) | SILAC ratio, Sec22b ([3]; competitor 25 μM) | SILAC ratio, Slc35b2 ([4]; competitor 25 μM) | SILAC ratio Cope ([5]; competitor 25 μM) | SILAC ratio Ndufs2 ([6]; competitor 25 μM) | SILAC ratio, Por ([7]; competitor 25 μM) | SILAC ratio Hspa5 ([8]; competitor 25 μM) | also measured
CCCCC/C=C\C/C=C\C/C=C\C/C=C\CCCC(=O)NCCO [AEA, anandamide, reference compound] | – | – | – | – | – | – | – | – | – | SILAC ratio Ganab ([1]; competitor 200 μM): 1.1; SILAC ratio, TIMM22 (Q9CQ85) ([2]; competitor 200 μM): 1.3; SILAC ratio, Timm22 ([2]; competitor 200 μM): 1.3; SILAC ratio, Sec22b ([3]; competitor 200 μM): 1.4; SILAC ratio, Slc35b2 ([4]; competitor 200 μM): 1.9; SILAC ratio Cope ([5]; competitor 200 μM): 0.9; SILAC ratio Ndufs2 ([6]; competitor 200 μM): 1.3; SILAC ratio, Por ([7]; competitor 200 μM): 2.0; SILAC ratio Hspa5 ([8]; competitor 200 μM): 1.2
O=C(/C=C/c1cccnc1)NCCCCC1CCN(C(=O)c2ccccc2)CC1 [FK-866, reference compound] | 1.1 | 1.2 | 1.2 | 1.2 | 1.0 | 1.5 | 1.7 | 1.2 | 1.2 | –
CN1CCN(C(=O)c2c(-c3ccccc3)c3cc([N+](=O)[O-])ccc3n2C)CC1 [KML110, (1-Methyl-5-nitro-3-phenyl-1H-indol-2-yl)(4-methylpiperazin-1-yl)methanone] | 1.3 | – | 1.4 | 1.4 | 1.3 | – | 1.3 | 1.6 | 1.4 | –
CN1CCN(C(=O)c2[nH]c3ccc([N+](=O)[O-])cc3c2-c2ccccc2)CC1 [MJN228, (4-Methylpiperazin-1-yl)(5-nitro-3-phenyl-1H-indol-2-yl)methanone] | 1.2 | 1.3 | 1.3 | 1.6 | 1.1 | 1.2 | 1.3 | 1.8 | 1.4 | SILAC ratio Ganab ([1]; competitor 10 μM): 1.2; SILAC ratio Ganab ([1]; competitor 50 μM): 1.5; SILAC ratio Ganab ([1]; competitor 100 μM): 1.6; SILAC ratio, Timm22 ([2]; competitor 10 μM): 1.0; SILAC ratio, Timm22 ([2]; competitor 50 μM): 1.0; SILAC ratio, Timm22 ([2]; competitor 100 μM): 1.8; SILAC ratio, Sec22b ([3]; competitor 10 μM): 1.5; SILAC ratio, Sec22b ([3]; competitor 50 μM): 2.0; SILAC ratio, Sec22b ([3]; competitor 100 μM): 2.0; SILAC ratio, Slc35b2 ([4]; competitor 10 μM): 1.0; SILAC ratio, Slc35b2 ([4]; competitor 50 μM): 1.6; SILAC ratio, Slc35b2 ([4]; competitor 100 μM): 1.2; SILAC ratio Ndufs2 ([6]; competitor 10 μM): 1.3; SILAC ratio Ndufs2 ([6]; competitor 100 μM): 1.1; SILAC ratio, Por ([7]; competitor 10 μM): 1.4; SILAC ratio, Por ([7]; competitor 50 μM): 2.0; SILAC ratio, Por ([7]; competitor 100 μM): 3.1; SILAC ratio Hspa5 ([8]; competitor 10 μM): 1.4; SILAC ratio Hspa5 ([8]; competitor 50 μM): 1.4; SILAC ratio Hspa5 ([8]; competitor 100 μM): 1.5
C=CCN(C)CCCCCCOc1ccc(C(=O)c2ccc(Br)cc2)c(F)c1 [Ro 48-8071, reference compound] | 0.9 | 1.1 | 1.1 | 1.1 | 0.9 | 1.1 | 1.2 | 1.5 | 0.9 | –

Source: US10168342B2, “Lipid probes and uses thereof” (THE SCRIPPS RESEARCH INSTITUTE, priority 2015, dated 2019)
